# Test: Two-photon absorption cross-sectional area, Z scan method, Examples B
# Type: physicochemical
# Conditions: tetrahydrofuran solution, femtosecond laser, 780 nm to 960 nm (710 nm to 990 nm)
# Experimental: Each of Compounds (1), (2), (57), (58), (59), (60), (3), (4), (61), (62), (25), (26), (63), (64), (65), (66), (45), (67), (68), (69), (70), (71), (72), (5), (9), (13), (19), (27), (31), (32), (34), (36), (39), (44), (53) and (55) was dissolved in tetrahydrofuran, and the resultant tetrahydrofuran solution was measured for its two-photon absorption cross-sectional area according to the below-described evaluation method therefor.
# This measurement was performed under the following conditions:
# Sample concentration: 10^−2 mol to 10^−5 mol (this range covering optimal concentrations of the samples (at which measurements are easily performed));
# Light path length of cell: 10 mm (corresponding to the inner diameter of cuvette);
# Light: variable femtosecond laser having a wavelength of 710 nm to 990 nm; and
# Light power: 10 mW to 800 mW.
# The following compound (73) was dissolved in tetrahydrofuran, and the resultant solution was measured for its two-photon absorption cross-sectional area according to the below-described evaluation method therefor.
# The following compound (74) was dissolved in tetrahydrofuran, and the resultant solution was measured for its two-photon absorption cross-sectional area according to the below-described evaluation method therefor.
# [drawing 68] [Method for Measuring Two-Photon Absorption Cross-Sectional Area]
# FIG. 8 schematically illustrates a system of the method.
# Measuring light source: femtosecond titanium sapphire laser
# Repetition frequency: 80 MHz
# Measuring method: Z scan method
# Inner diameter of cuvette: 10 mm
# Light power for measurement: about 500 mW
# Collection diameter: 40 μm to 50 μm
# A quartz cell filled with each sample solution was placed in a light path through which a focused laser beam was passed. Then, the cell was moved along the light path for Z-scan measurement.
# The sample solution was measured for its transmittance, and the thus-obtained value and the following theoretical equation (I) were used to determine a nonlinear absorption coefficient of the sample. T=[ln(1+I0L0β)]/I0L0β (I)
# where T denotes a transmittance (%), I0 denotes an excited light density [GW/cm^2], L0 denotes a sample cell length [cm], and β denotes a nonlinear absorption coefficient [cm/GW].
# The thus-determined nonlinear absorption coefficient and the following equation (ii) were used to calculate a two-photon absorption cross-sectional area σ. Note that the unit of σ is GM (1 GM=1×10^−50 cm^4·s·photon^−1). σ=1,000×hvβ/[…] (ii)
# where h denotes the Planck's constant [J·s], v denotes a frequency of an incident laser beam [s^−1], NA denotes the Avogadoro's number, and C denotes a concentration of a solution [mol/L].
row,SMILES,Two-photon absorption cross-sectional area
1,CCCCCCc1ccc(N(c2ccc(C3=C4N=C(C(C)=C4CC)C(c4c(C)cc(C)cc4C)=c4c(C)c(CC)c5[n]4[Co][n]4c(c(C)c(CC)c43)C(c3c(C)cc(C)cc3C)=C3N=C(C=5)C(CC)=C3C)cc2)c2ccc(C3=c4c(CC)c(C)c5[n]4[Co][n]4c(c(CC)c(C)c4C(c4c(C)cc(C)cc4C)=C4N=C3C(CC)=C4C)C=C3N=C(C(C)=C3CC)C=5c3c(C)cc(C)cc3C)cc2)cc1 [(65)],810 GM
2,CCCCCCc1ccc(N(c2ccc(C3=C4N=C(C(C)=C4CC)C(c4c(C)cc(C)cc4C)=c4c(C)c(CC)c5[n]4[Cu][n]4c(c(C)c(CC)c43)C(c3c(C)cc(C)cc3C)=C3N=C(C=5)C(CC)=C3C)cc2)c2ccc(C3=c4c(CC)c(C)c5[n]4[Cu][n]4c(c(CC)c(C)c4C(c4c(C)cc(C)cc4C)=C4N=C3C(CC)=C4C)C=C3N=C(C(C)=C3CC)C=5c3c(C)cc(C)cc3C)cc2)cc1 [(66)],820 GM
3,CCCCCCC1(CCCCCC)c2cc(-c3c4nc(c(-c5cc(OC)c(OC)c(OC)c5)c5ccc(cc6nc(c(-c7cc(OC)c(OC)c(OC)c7)c7ccc3[nH]7)C=C6)[nH]5)C=C4)ccc2-c2ccc(-c3c4nc(c(-c5cc(OC)c(OC)c(OC)c5)c5ccc([nH]5)c(/C=C/c5ccc(N(c6ccccc6)c6ccccc6)cc5)c5nc(c(-c6cc(OC)c(OC)c(OC)c6)c6ccc3[nH]6)C=C5)C=C4)cc21 [(67)],990 GM
4,"CC(C)(C)c1c2nc(c(C(C)(C)C)c3ccc([nH]3)c(C(C)(C)C)c3nc(c(C(C)(C)C)c4ccc1[nH]4)C=C3)C=C2 [(73), reference compound]",≈0 GM
5,"COc1ccc(-c2cc(C3=C(c4cc(-c5ccc(OC)cc5)sc4OC)C(F)(F)C(F)(F)C3(F)F)c(OC)s2)cc1 [(74), reference compound]",15 GM

# Other lines, results leading:
row,Two-photon absorption cross-sectional area,SMILES
1,"1,020 GM",CCCCCCC1(CCCCCC)c2cc(C3=C4C=CC(=N4)C(c4cc(OC)c(OC)c(OC)c4)=c4ccc5[n]4[Ni][n]4c(ccc43)C(c3cc(OC)c(OC)c(OC)c3)=C3C=CC(=N3)C=5/C=C/c3ccc(N(c4ccccc4)c4ccccc4)cc3)ccc2-c2ccc(C3=c4ccc5[n]4[Ni][n]4c(ccc4C(c4cc(OC)c(OC)c(OC)c4)=C4C=CC3=N4)C=C3C=CC(=N3)C=5c3cc(OC)c(OC)c(OC)c3)cc21 [(68)]
2,920 GM,CCCCCCC1(CCCCCC)c2cc(C3=C4C=CC(=N4)C(c4cc(OC)c(OC)c(OC)c4)=c4ccc5[n]4[Cu][n]4c(ccc43)C(c3cc(OC)c(OC)c(OC)c3)=C3C=CC(=N3)C=5/C=C/c3ccc(N(c4ccccc4)c4ccccc4)cc3)ccc2-c2ccc(C3=c4ccc5[n]4[Cu][n]4c(ccc4C(c4cc(OC)c(OC)c(OC)c4)=C4C=CC3=N4)C=C3C=CC(=N3)C=5c3cc(OC)c(OC)c(OC)c3)cc21 [(69)]
3,900 GM,CCCCCCC1(CCCCCC)c2cc(C3=C4C=CC(=N4)C(c4cc(OC)c(OC)c(OC)c4)=c4ccc5[n]4[Co][n]4c(ccc43)C(c3cc(OC)c(OC)c(OC)c3)=C3C=CC(=N3)C=5/C=C/c3ccc(N(c4ccccc4)c4ccccc4)cc3)ccc2-c2ccc(C3=c4ccc5[n]4[Co][n]4c(ccc4C(c4cc(OC)c(OC)c(OC)c4)=C4C=CC3=N4)C=C3C=CC(=N3)C=5c3cc(OC)c(OC)c(OC)c3)cc21 [(70)]

# From US8207330B2, “Two-photon absorption material and application thereof” (Ricoh Company, Ltd., priority 2008, dated 2012)
